Results on 38 compounds are retold here after patent US8946268B2, “Modulators of HEC1 activity and methods therefor” (Taivex Therapeutics, Inc., priority 2010, dated 2015).

Broadly, the pIC50 is −log10 of the IC50, conventionally taken in molar units.

Common to all, as to format: cell-based
In assay [1] the test system is Hela. Description: Antiproliferative activity (MTS assay), Hela. The following applies: Hela cells. On the procedure:
(§1) Antiproliferative effect is expressed as IC50 values in microMolar final concentration.
(§2) Cells were grown at 37° C. in a humidified atmosphere with 5% CO2 and 95% air. Cells were seeded in 96 well tissue culture plates.
(§3) Compound treatment started after overnight incubation of cells (TO). […] Compound was added to the plate in triplicate wells, and the plates were then incubated for 96 hours. DMSO (compounds diluents) was also included and added to the plate in control wells. Cell viability was then determined by MTS assay using CellTiter 96® AQueous non-radioactive cell proliferation assay system (Promega). A plate reader (Molecular Devices, Vmax) was used to read the optical densities, and the results were used to deduce concentration-response curves. […] The results were analyzed using linear regression software (GraphPad Prism 5; GraphPad Software Inc.).
(§4) The GI50 values (growth inhibitory activity) were determined to emphasize on the correction for the cell count at time zero; thus, the % inhibition of test drug were: [1−(T−T0)/(C−T0)]×100; and these value were used to plot the concentration-response curves, and then analyzed with linear regression software (GraphPad Prism 5).
(In general: Formazan colour is commonly taken as a measure of viable cells.)

The subject of assay [2] is MDA-MB-231. Description: Antiproliferative activity (MTS assay), MDA-MB-231. The following applies: MDA-MB-231 cells. On the procedure: as §1, §2, §3, §4
Assay [3] has as its system K562. The experiment in a line: Antiproliferative activity (MTS assay), K562. The conditions noted are these: K562 cells. On the procedure: as §1, §2, §3, §4
In assay [4] the test system is MDA-MB-468. The experiment in a line: Antiproliferative activity (MTS assay), MDA-MB-468. The following applies: MDA-MB-468 cells. On the procedure: as §1, §2, §3, §4

pIC50: −log10 of the molar value. Bounds are passed on as bounds.

Consider `Cc1cc(C)c(-c2csc(NC(=O)c3ccncc3)n2)c(C)n1` [Compound 44], for which the pIC50 is below 5.00 in assay [1] (Homo sapiens, HeLa, 96 h); 5.91 in assay [2] (Homo sapiens, MDA-MB-231, 96 h); 5.71 in assay [3] (Homo sapiens, K562, 96 h); 6.00 in assay [4] (Homo sapiens, MDA-MB-468, 96 h).
In the same order, the values of `Cc1cc(C)c(-c2csc(NC(=O)c3ccccn3)n2)c(C)n1` [Compound 45] are below 5.00, below 5.00, below 5.00 and 5.11.
On to `Cc1cc(C)c(-c2csc(NC(=O)c3cccnc3)n2)c(C)n1` [Compound 46], for which the pIC50 in assay [1] (Homo sapiens, HeLa, 96 h) is below 5.00; in assay [2] (Homo sapiens, MDA-MB-231, 96 h) it was 5.13; in assay [3] (Homo sapiens, K562, 96 h) it was below 5.00; in assay [4] (Homo sapiens, MDA-MB-468, 96 h), 5.14.
As for `COc1cc(-c2csc(NC(=O)c3ccnnc3)n2)ccc1O` [Compound 47], the pIC50 in assay [1] (Homo sapiens, HeLa, 96 h) is below 5.00; in assay [2] (Homo sapiens, MDA-MB-231, 96 h), below 5.00; in assay [3] (Homo sapiens, K562, 96 h), below 5.00; in assay [4] (Homo sapiens, MDA-MB-468, 96 h), below 5.00.
For the compound `COc1cc(-c2csc(NC(=O)c3ccncn3)n2)ccc1O` [Compound 48], the pIC50 in assay [1] (Homo sapiens, HeLa, 96 h) was below 5.00; in assay [2] (Homo sapiens, MDA-MB-231, 96 h) it was below 5.00; in assay [3] (Homo sapiens, K562, 96 h) it was below 5.00; in assay [4] (Homo sapiens, MDA-MB-468, 96 h) it was below 5.00.
As to `COc1cc(-c2csc(NC(=O)c3ccsc3)n2)ccc1O` [Compound 49], the pIC50 in assay [1] (Homo sapiens, HeLa, 96 h) was below 5.00; in assay [2] (Homo sapiens, MDA-MB-231, 96 h) it was below 5.00; in assay [3] (Homo sapiens, K562, 96 h), below 5.00; in assay [4] (Homo sapiens, MDA-MB-468, 96 h) it was below 5.00.
For the compound `COc1cc(-c2csc(NC(=O)c3cncs3)n2)ccc1O` [Compound 50], the pIC50 in assay [1] (Homo sapiens, HeLa, 96 h) was below 5.00; in assay [2] (Homo sapiens, MDA-MB-231, 96 h), below 5.00; in assay [3] (Homo sapiens, K562, 96 h) it was below 5.00; in assay [4] (Homo sapiens, MDA-MB-468, 96 h), below 5.00.
For the compound `COc1cc(-c2csc(NC(=O)c3ccoc3)n2)ccc1O` [Compound 51], the pIC50 in assay [1] (Homo sapiens, HeLa, 96 h) was below 5.00; in assay [2] (Homo sapiens, MDA-MB-231, 96 h), below 5.00; in assay [3] (Homo sapiens, K562, 96 h), below 5.00; in assay [4] (Homo sapiens, MDA-MB-468, 96 h), below 5.00.
Take `Cc1cc(-c2ccccc2)cc(C)c1-c1csc(NC(=O)c2ccncc2)n1` [Compound 53]: the pIC50 was 6.32 in assay [1] (Homo sapiens, HeLa, 96 h); 6.37 in assay [2] (Homo sapiens, MDA-MB-231, 96 h); 6.21 in assay [3] (Homo sapiens, K562, 96 h); 6.32 in assay [4] (Homo sapiens, MDA-MB-468, 96 h).
`COc1ccc(-c2csc(NC(=O)c3ccnc(Cl)c3)n2)cc1` [Compound 54]: the pIC50 was 5.23 in assay [1] (Homo sapiens, HeLa, 96 h); 5.34 in assay [2] (Homo sapiens, MDA-MB-231, 96 h); 5.18 in assay [3] (Homo sapiens, K562, 96 h); 5.16 in assay [4] (Homo sapiens, MDA-MB-468, 96 h).
Consider `Cc1cc(Cl)cc(C)c1-c1csc(NC(=O)c2ccncc2)n1` [Compound 55], for which the pIC50 in assay [1] (Homo sapiens, HeLa, 96 h) was 6.14; in assay [2] (Homo sapiens, MDA-MB-231, 96 h), 6.23; in assay [3] (Homo sapiens, K562, 96 h), 6.12; in assay [4] (Homo sapiens, MDA-MB-468, 96 h), 6.05.
In the same order, the values of `N#Cc1ccc(C(=O)Nc2nc(-c3ccc(O)cc3)cs2)cc1` [Compound 56] are below 5.00, below 5.00, below 5.00 and below 5.00.
On the same counts, the results for `O=C(Nc1nc(-c2ccc(O)cc2)cs1)c1ccncc1` [Compound 57] are below 5.00, below 5.00, below 5.00 and below 5.00.
As to `O=C(Nc1nc(-c2ccc(O)cc2)cs1)c1ccncn1` [Compound 58], the pIC50 in assay [1] (Homo sapiens, HeLa, 96 h) is below 5.00; in assay [2] (Homo sapiens, MDA-MB-231, 96 h) it was below 5.00; in assay [3] (Homo sapiens, K562, 96 h) it was below 5.00; in assay [4] (Homo sapiens, MDA-MB-468, 96 h), below 5.00.
`O=C(Nc1nc(-c2ccc(O)cc2)cs1)c1ccccn1` [Compound 59]: the pIC50 was below 5.00 in assay [1] (Homo sapiens, HeLa, 96 h); below 5.00 in assay [2] (Homo sapiens, MDA-MB-231, 96 h); below 5.00 in assay [3] (Homo sapiens, K562, 96 h); below 5.00 in assay [4] (Homo sapiens, MDA-MB-468, 96 h).
As to `O=C(Nc1nc(-c2ccc(O)cc2)cs1)c1cccnc1` [Compound 60], the pIC50 in assay [1] (Homo sapiens, HeLa, 96 h) was below 5.00; in assay [2] (Homo sapiens, MDA-MB-231, 96 h), below 5.00; in assay [3] (Homo sapiens, K562, 96 h), below 5.00; in assay [4] (Homo sapiens, MDA-MB-468, 96 h) it was below 5.00.
`Cc1cc(O)ccc1-c1csc(NC(=O)c2ccc(C#N)cc2)n1` [Compound 61]: the pIC50 in assay [1] (Homo sapiens, HeLa, 96 h) was below 5.00; in assay [2] (Homo sapiens, MDA-MB-231, 96 h), below 5.00; in assay [3] (Homo sapiens, K562, 96 h), below 5.00; in assay [4] (Homo sapiens, MDA-MB-468, 96 h) it was below 5.00.
Take `COc1c(F)cc(-c2csc(NC(=O)c3ccncc3)n2)cc1F` [Compound 62]: the pIC50 in assay [1] (Homo sapiens, HeLa, 96 h) was below 5.00; in assay [2] (Homo sapiens, MDA-MB-231, 96 h), 5.40; in assay [3] (Homo sapiens, K562, 96 h), 5.15; in assay [4] (Homo sapiens, MDA-MB-468, 96 h) it was 5.26.
On the same counts, the results for `COc1ccc(-c2csc(NC(=O)c3ccnc(Cl)c3)n2)cc1F` [Compound 63] are below 5.00, below 5.00, below 5.00 and below 5.00.
On the same counts, the results for `Cc1cc(C)c(-c2csc(NC(=O)c3ccnc(Cl)c3)n2)c(C)c1` [Compound 64] are 6.08, 6.21, 6.03 and 6.01.
Consider `CCOc1cc(C)c(-c2csc(NC(=O)c3ccnc(Cl)c3)n2)c(C)c1` [Compound 66], for which the pIC50 in assay [1] (Homo sapiens, HeLa, 96 h) was 6.70; in assay [2] (Homo sapiens, MDA-MB-231, 96 h) it was 6.96; in assay [3] (Homo sapiens, K562, 96 h) it was 6.68; in assay [4] (Homo sapiens, MDA-MB-468, 96 h), 6.62.
In the same order, the values of `COc1cc(C)c(-c2csc(NC(=O)Nc3ccncc3)n2)c(C)c1` [Compound 67] are below 5.00, 6.24, 6.09 and 6.11.
On the same counts, the results for `CC(=O)Nc1cc(C)c(-c2csc(NC(=O)Nc3ccncc3)n2)c(C)c1` [Compound 68] are 5.29, 5.37, 5.30 and 5.44.
In the same order, the values of `CCOc1cc(C)c(-c2csc(NC(=O)c3ccnc(F)c3)n2)c(C)c1` [Compound 70] are 7.52, 6.96, 6.80 and 6.68.
In the case of `COc1cc(C)c(-c2csc(NC(=O)c3cc[n+]([O-])cc3)n2)c(C)c1` [Compound 72], the pIC50 is 5.57 in assay [1] (Homo sapiens, HeLa, 96 h); 5.37 in assay [2] (Homo sapiens, MDA-MB-231, 96 h); 5.27 in assay [3] (Homo sapiens, K562, 96 h); 5.32 in assay [4] (Homo sapiens, MDA-MB-468, 96 h).
On the same counts, the results for `CC(C)c1cc(C(C)C)c(-c2csc(NC(=O)c3ccncc3)n2)c(C(C)C)c1` [Compound 73] are below 5.00, below 5.00, below 5.00 and below 5.00.
In the same order, the values of `CC(=O)Nc1cc(C)c(-c2csc(NC(=O)c3ccncc3)n2)c(C)c1` [Compound 74] are 5.80, 5.84, 5.67 and 5.90.
On the same counts, the results for `COc1cc(C)c(-c2csc(NC(=O)c3cncs3)n2)c(C)c1` [Compound 75] are 5.53, 5.63, 5.43 and 5.36.
Regarding `O=C(Nc1nc(-c2c(F)cc(F)cc2F)cs1)c1ccncc1` [Compound 76], the pIC50 is 5.95 in assay [1] (Homo sapiens, HeLa, 96 h); 6.27 in assay [2] (Homo sapiens, MDA-MB-231, 96 h); 6.03 in assay [3] (Homo sapiens, K562, 96 h); 5.90 in assay [4] (Homo sapiens, MDA-MB-468, 96 h).
In the same order, the values of `Cc1cc(C)c(-c2csc(NC(=O)c3ccncc3F)n2)c(C)c1` [Compound 77] are 5.64, 5.91, 5.55 and 5.56.
In the case of `Cc1cc(C)c(-c2csc(NC(=O)c3ccnc(Cl)c3)n2)c(C)c1` [Compound 81], the pIC50 in assay [1] (96 hours) is 6.07; in assay [2] (96 hours), 6.14; in assay [3] (96 hours), 6.10; in assay [4] (96 hours), 6.09.
For the compound `Cc1cc(C)c(-c2csc(NC(=O)c3ccnc(N4CCOCC4)c3)n2)c(C)c1` [Compound 83], the pIC50 in assay [1] (Homo sapiens, HeLa, 96 h) was 5.63; in assay [2] (Homo sapiens, MDA-MB-231, 96 h) it was 5.45; in assay [3] (Homo sapiens, K562, 96 h), 5.65; in assay [4] (Homo sapiens, MDA-MB-468, 96 h) it was 5.38.
On the same counts, the results for `Cc1cc(C)c(-c2csc(NC(=O)c3ccnc(N4CCN(C)CC4)c3)n2)c(C)c1` [Compound 84] are below 5.00, below 5.00, below 5.00 and 4.54.
On the same counts, the results for `COc1cc(C(=O)Nc2nc(-c3c(C)cc(C)cc3C)cs2)ccn1` [Compound 86] are 5.76, 6.11, 6.16 and 5.60.
Regarding `COc1cc(C(=O)Nc2nc(-c3c(C)cc(C)cc3C)cs2)cc(Cl)n1` [Compound 87], the pIC50 was below 5.00 in assay [1] (Homo sapiens, HeLa, 96 h); below 5.00 in assay [2] (Homo sapiens, MDA-MB-231, 96 h); below 5.00 in assay [3] (Homo sapiens, K562, 96 h); below 5.00 in assay [4] (Homo sapiens, MDA-MB-468, 96 h).
In the case of `Cc1cc(C)c(-c2csc(NC(=O)c3cc(Cl)nc(Cl)c3)n2)c(C)c1` [Compound 88], the pIC50 was below 5.00 in assay [1] (Homo sapiens, HeLa, 96 h); 5.10 in assay [2] (Homo sapiens, MDA-MB-231, 96 h); 5.08 in assay [3] (Homo sapiens, K562, 96 h); 4.81 in assay [4] (Homo sapiens, MDA-MB-468, 96 h).
In the same order, the values of `CC(=O)Nc1cc(C(=O)Nc2nc(-c3c(C)cc(C)cc3C)cs2)ccn1` [Compound 89] are below 5.00, below 5.00, below 5.00 and 5.09.
In the same order, the values of `Cc1cc(C)c(-c2csc(NC(=O)c3cc(F)nc(F)c3)n2)c(C)c1` [Compound 90] are 5.94, 6.10, 6.00 and 5.91.
